Experimental data taken from the supplement of paper PMC10883282.

How the values were obtained:
Test in all cases: standardised AUC of viability dose-response curve (72 h) (fraction (0-1)); higher = less growth inhibition (more resistant)
HT1080 = test system: HT1080
Procedure, shortened: (§1)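 Sarcoma cell lines in 384-well plates were treated in triplicate for 72 h with 2.5 µl of a compound dilution series, made in 1:3 steps from 10 mM to 0.0002 mM on the compound plate. ATPLite viability was scaled from 1 (full) to 0 (none) and fitted per drug and cell line with a four-parameter log-logistic model. The values are standardised areas under the dose-response curve in log-dose space, from a modified drexplorer computeAUC. On that scale, 1 means no response and 0 means full response.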

SW872 = test system: SW872
Procedure, shortened: as §1

G401 = test system: G401
Procedure, shortened: as §1

SW684 = test system: SW684
Procedure, shortened: as §1

RD-ES = test system: RD-ES
Procedure, shortened: as §1

SK-LMS-1 = test system: SK-LMS-1
Procedure, shortened: as §1

SW982 = test system: SW982
Procedure, shortened: as §1

KHOS-NP = test system: KHOS-NP
Procedure, shortened: as §1

VA-ES-BJ = test system: VA-ES-BJ
Procedure, shortened: as §1

A204 = test system: A204
Procedure, shortened: as §1

HS729 = test system: HS729
Procedure, shortened: as §1

MES-SA = test system: MES-SA
Procedure, shortened: as §1

SW1353 = test system: SW1353
Procedure, shortened: as §1

RD = test system: RD
Procedure, shortened: as §1

SYO-1 = test system: SYO-1
Procedure, shortened: as §1

KHOS-240S = test system: KHOS-240S
Procedure, shortened: as §1

SK-ES-1 = test system: SK-ES-1
Procedure, shortened: as §1

Structure (SMILES) | standardised AUC (HT1080) | standardised AUC (SW872) | standardised AUC (G401) | standardised AUC (SW684) | standardised AUC (RD-ES) | standardised AUC (SK-LMS-1) | standardised AUC (SW982) | standardised AUC (KHOS-NP) | standardised AUC (VA-ES-BJ) | standardised AUC (A204) | standardised AUC (HS729) | standardised AUC (MES-SA) | standardised AUC (SW1353) | standardised AUC (RD) | standardised AUC (SYO-1) | standardised AUC (KHOS-240S) | standardised AUC (SK-ES-1)
CC1(C)CC=C(c2nc(C3CC(C)(C)OC(C)(C)C3)ccc2NC(=O)c2nc(C#N)c[nH]2)CC1 [EDICOTINIB] | 0.984 | 1 | 0.987 | 1 | 0.994 | 0.99 | 1 | 0.994 | 0.991 | 0.985 | 0.931 | 0.971 | 1 | 0.984 | 1 | 0.987 | 0.976
CC(C)(O)CNc1nc(Nc2ccnc(C(F)(F)F)c2)nc(-c2cccc(C(F)(F)F)n2)n1 [ENASIDENIB] | 0.999 | 0.998 | 0.992 | 0.973 | 0.992 | 0.998 | 1 | 0.981 | 0.991 | 0.972 | 0.997 | 0.99 | 0.99 | 0.984 | 0.958 | 0.995 | 0.945
COC(=O)N[C@@H](C)CNc1nccc(-c2cn(C(C)C)nc2-c2cc(Cl)cc(NS(C)(=O)=O)c2F)n1 [ENCORAFENIB] | 0.933 | 0.665 | 0.922 | 0.961 | 0.903 | 0.887 | 0.818 | 0.903 | 0.923 | 0.922 | 0.925 | 0.9 | 0.941 | 0.896 | 0.977 | 0.956 | 0.843
CN1CCN(c2ccc(C(=O)Nc3n[nH]c4ccc(Cc5cc(F)cc(F)c5)cc34)c(NC3CCOCC3)c2)CC1 [ENTRECTINIB] | 0.957 | 0.893 | 0.904 | 0.927 | 0.88 | 0.928 | 0.885 | 0.973 | 0.957 | 0.944 | 0.915 | 0.933 | 0.924 | 0.888 | 0.868 | 0.901 | 0.87
Cn1cc(C2=C(c3cn(C4CCN(Cc5ccccn5)CC4)c4ccccc34)C(=O)NC2=O)c2ccccc21 [ENZASTAURIN] | 1 | 0.973 | 1 | 0.961 | 1 | 0.953 | 0.961 | 0.992 | 1 | 0.979 | 0.995 | 0.988 | 0.943 | 0.995 | 0.965 | 0.978 | 0.986
O=S(=O)(c1cccc2cnccc12)N1CCCNCC1 [FASUDIL] | 0.997 | 0.992 | 1 | 0.978 | 1 | 0.986 | 0.991 | 0.994 | 0.996 | 0.981 | 0.982 | 0.993 | 0.981 | 1 | 0.997 | 0.982 | 1
O=C(Nc1nc2cccc(-c3ccc(CN4CCS(=O)(=O)CC4)cc3)n2n1)C1CC1 [FILGOTINIB] | 0.991 | 0.979 | 0.993 | 0.994 | 0.998 | 0.987 | 0.993 | 0.991 | 0.96 | 0.985 | 0.906 | 0.987 | 0.949 | 0.985 | 0.892 | 0.991 | 0.981
COc1cc(Nc2ncc(F)c(Nc3ccc4c(n3)N(COP(=O)(O)O)C(=O)C(C)(C)O4)n2)cc(OC)c1OC [FOSTAMATINIB] | 0.968 | 0.803 | 0.842 | 0.886 | 0.857 | 0.854 | 0.755 | 0.911 | 0.845 | 0.774 | 0.871 | 0.885 | 0.819 | 0.906 | 0.779 | 0.798 | 0.757
Cc1cccc(-c2nn3c(c2-c2ccnc4ccc(C(N)=O)cc24)CCC3)n1 [GALUNISERTIB] | 0.982 | 0.962 | 0.993 | 0.992 | 0.972 | 0.974 | 0.992 | 0.956 | 1 | 0.976 | 0.91 | 0.969 | 0.976 | 0.998 | 0.853 | 0.955 | 0.968
CN1CC[C@@H](NC(=O)Nc2ccc(C#N)cc2)C[C@@H]1c1nc2ccccc2[nH]1 [GLASDEGIB] | 0.988 | 0.988 | 0.976 | 0.99 | 0.959 | 0.982 | 0.991 | 0.992 | 0.984 | 0.982 | 0.985 | 0.976 | 0.988 | 0.987 | 0.976 | 0.991 | 0.953
CC(C)NC[C@@H](C(=O)N1CCN(c2ncnc3c2[C@H](C)C[C@H]3O)CC1)c1ccc(Cl)cc1 [IPATASERTIB] | 0.969 | 0.805 | 0.836 | 0.848 | 0.848 | 0.885 | 0.916 | 0.954 | 0.769 | 0.843 | 0.817 | 0.781 | 0.891 | 0.898 | 0.791 | 0.921 | 0.851
